In brackets after ≈: the same amount, converted by molar mass. Several values for one entry are separate records, joined by “and”; a condition that tells them apart may be missing. Equal values may be shown once. Read-outs that look alike come from different tables or passages of the source.
How the values were obtained:
[1] = Microsomal stability; format: in vitro ADME; settings: for Mic. Stab. Human / Mic. Stab. Human QH: human liver microsomes; for Mic. Stab. Mouse / Mic. Stab. Mouse QH: mouse liver microsomes; for Mic. Stab. Rat / Mic. Stab. Rat QH: rat liver microsomes
Description: […] Reactions were terminated by addition of acetonitrile and precipitates separated by centrifugation. Compound concentrations in supernatants were measured by HPLC-MS/MS and clearance was calculated from compound half-lives using the well-stirred liver model.

[2] = molecular target: VCB: PROTAC: SMARCA2^BD ternary complex (Homo sapiens, UniProt P40337+P51531); assay: SPR ternary complex measurement, VCB immobilised, 10 µM SMARCA2^BD present; format: binding; set-up: P51531-2, residues 1373-1493 with additional N-terminal SM residues; His6 (TEV site) (N, cleaved yes); GST (TEV site) (N, cleaved yes); made in house; host or cells: SMARCA2^BD: Escherichia coli BL21(DE3); settings: for Kd: SPR; for alpha: cooperativity, SMARCA2, ratio of KD values measured in the same run
VCB: PROTAC: SMARCA2^BD ternary complex (Homo sapiens, UniProt P40337+P51531), sequence (P40337 54-213): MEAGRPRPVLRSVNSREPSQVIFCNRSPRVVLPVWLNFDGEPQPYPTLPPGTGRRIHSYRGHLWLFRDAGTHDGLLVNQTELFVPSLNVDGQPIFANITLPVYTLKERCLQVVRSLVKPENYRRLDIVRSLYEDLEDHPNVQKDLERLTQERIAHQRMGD
VCB: PROTAC: SMARCA2^BD ternary complex (Homo sapiens, UniProt P40337+P51531), sequence (Q15369 17-112 partner limits assumed): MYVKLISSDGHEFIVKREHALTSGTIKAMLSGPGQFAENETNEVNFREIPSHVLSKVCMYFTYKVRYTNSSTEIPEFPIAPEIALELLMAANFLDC
VCB: PROTAC: SMARCA2^BD ternary complex (Homo sapiens, UniProt P40337+P51531), sequence (Q15370 1-104 partner limits assumed): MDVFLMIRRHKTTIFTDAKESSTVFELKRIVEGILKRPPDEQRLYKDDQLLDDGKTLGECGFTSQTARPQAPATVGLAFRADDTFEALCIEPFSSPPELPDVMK
VCB: PROTAC: SMARCA2^BD ternary complex (Homo sapiens, UniProt P40337+P51531), sequence (P51531 1373-1493 isoform P51531-2): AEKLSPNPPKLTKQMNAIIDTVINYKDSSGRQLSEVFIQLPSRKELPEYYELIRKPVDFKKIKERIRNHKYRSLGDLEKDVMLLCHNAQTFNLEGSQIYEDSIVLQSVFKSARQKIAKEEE
Description: (§1) SPR data were acquired on Biacore 8K or T200 instruments (Cytiva). Target proteins were immobilised at 25 °C on CM5 chips by amine coupling (EDC/NHS, Cytiva) in HBS-P+ running buffer (pH 7.4), containing 2 mM TCEP. […] The reference surface was subsequently deactivated using 1 M ethanolamine. […] Biotinylated VCB was prepared as previously described[27]: in brief, the complex was mixed 1:1 with EZ-Link NHS–PEG4–biotin (Thermo Scientific) and incubated at room temperature for 1 h. Unreacted NHS-biotin was removed using a PD-10 desalting column (Cytiva) into 20 mM HEPES, pH 7.5, 150 mM sodium chloride and 1 mM DTT. The reference surface was generated by deactivating the EDC/NHS-treated surface with 1 M ethanolamine. All interaction experiments were done at 6 °C in running buffer (20 mM TRIS, pH 8.3, 150 mM potassium chloride, 2 mM magnesium chloride, 2 mM TCEP, 0.005% TWEEN 20, 1% dimethyl sulfoxide). For ternary complex measurements, a sensor chip surface with VCB immobilised was used (preparation as described above). Experiments were run in dual-inject mode with 10 µM SMARCA present during the injection and dissociation phase. Sensorgrams from reference surfaces and blank injections were subtracted from the raw data prior to data analysis using Biacore Insight software. Affinity and binding kinetic parameters were determined by global fitting using the 1:1 interaction model with a term for mass-transport included.

[3] = molecular target: VCB: PROTAC: SMARCA4^BD ternary complex (Homo sapiens, UniProt P40337+P51532); assay: SPR ternary complex measurement, VCB immobilised, 10 µM SMARCA4^BD present; format: binding; set-up: P51532, residues 1448–1569 with additional N-terminal SM residues; His6 (TEV site) (N, cleaved yes); GST (TEV site) (N, cleaved yes); made in house; host or cells: SMARCA4^BD: Escherichia coli BL21(DE3); settings: for Kd: SPR; for alpha: cooperativity, SMARCA4, ratio of KD values measured in the same run
VCB: PROTAC: SMARCA4^BD ternary complex, sequence (P40337 54-213): as the sequence (P40337 54-213) above
VCB: PROTAC: SMARCA4^BD ternary complex, sequence (Q15369 17-112 partner limits assumed): as the sequence (Q15369 17-112 partner limits assumed) above
VCB: PROTAC: SMARCA4^BD ternary complex, sequence (Q15370 1-104 partner limits assumed): as the sequence (Q15370 1-104 partner limits assumed) above
VCB: PROTAC: SMARCA4^BD ternary complex, sequence (P51532 1448-1569): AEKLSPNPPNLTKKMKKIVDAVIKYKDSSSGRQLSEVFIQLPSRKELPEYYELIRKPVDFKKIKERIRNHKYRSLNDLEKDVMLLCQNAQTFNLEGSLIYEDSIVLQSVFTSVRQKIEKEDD
Description: as §1

[4] = test system: Caco-2 cell monolayer; assay: Bidirectional permeability measurement in Caco-2 cells; format: in vitro ADME; settings: for Modified Caco-2 Pab + PGPi (Zosuquidar): Modified Caco-2, a to b
How it was run: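 Compound quantified by LC-MS/MS in samples taken over up to 2 h across 14–21-day Caco-2 monolayers, after 24 h preincubation with 1 µM compound. Runs done without and with 5 µM zosuquidar to probe P-gp. Efflux ratio is the quotient of duplicate-mean Papp,BA over Papp,AB.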

[5] = test system: VCB: PROTAC: SMARCA2^BD ternary complex; assay: TR-FRET ternary complex affinity and cooperativity, SMARCA2; format: binding, human; settings: ratio TR-FRET EC50 / TR-FRET EC50 +VCB measured in the same run, SMARCA2BD
[6] = molecular target: T1, PBRM1BD5 (Homo sapiens, UniProt P40337+Q86U86); assay: TR-FRET ternary complex affinity and cooperativity, PBRM1; format: binding; settings: TR-FRET competition for PBRM1BD5, + VCB; mean ± SD; read-out: TR-FRET Ternary PBRM1BD EC50 (PROTAC + VCB)
T1 construct: GST (TEV site) (N); His6 (TEV site) (N, cleaved yes); made in house; host or cells: PBRM1^BD5: Escherichia coli BL21(DE3)
T1 sequence (Q86U86 645-766): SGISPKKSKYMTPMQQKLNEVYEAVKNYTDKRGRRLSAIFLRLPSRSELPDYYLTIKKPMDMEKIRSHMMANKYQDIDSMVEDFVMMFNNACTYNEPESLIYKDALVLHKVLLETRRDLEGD
T1 sequence (P40337 54-213): as the sequence (P40337 54-213) above
T1 sequence (Q15369 17-112 partner): as the sequence (Q15369 17-112 partner limits assumed) above
T1 sequence (Q15370 1-104 partner): as the sequence (Q15370 1-104 partner limits assumed) above

[7] = test system: PBRM1BD5; assay: as above; format: binding; settings: ratio TR-FRET EC50 / TR-FRET EC50 +VCB measured in the same run, PBRM1BD5
[8] = Solubility testing; format: physicochemical; settings: for solubility at 24 h: buffer, kinetic from dmso stock
Description: Dilution into a 1:1 mixture of acetonitrile and water was used as reference. After 24 h, the incubations were filtrated, and the filtrate was analyzed by LC-UV.

[9] = ternary complex with SMARCA2BD, mean ± SD
[10] = ternary complex with SMARCA4BD, mean ± SD
[11] = pH 4.5, aqueous buffer, pH 4.5, read-out: Solubility pH 4.5
[12] = pH 6.8, aqueous buffer, pH 6.8, read-out: Solubility pH 6.8

| SMILES | Mic. Stab. Human [1] [% QH] | Mic. Stab. Human QH [1] | Mic. Stab. Mouse [1] [% QH] | Mic. Stab. Mouse QH [1] | Mic. Stab. Rat [1] [% QH] | Mic. Stab. Rat QH [1] | Kd [2, 9] [nM] | Kd ([2]; ternary, individual replicates) | alpha [2] | Kd [3, 10] [nM] | Kd ([3]; ternary, individual replicates) | alpha [3] | cooperativity α (SMARCA2BD) [5] | EC50 [6] [nM] | cooperativity α (PBRM1BD) [7] | solubility at 24 h [8, 11] [µg/mL] | solubility at 24 h [8, 12] [µg/mL] | Caco-2 Pab ([4]; Caco-2) | Caco-2 Pab ([4]; Caco-2, a to b) | Solubility pH 4.5 ([8]; pH 4.5) | further results |
| --- | --- | --- | --- | --- | --- | --- | --- | --- | --- | --- | --- | --- | --- | --- | --- | --- | --- | --- | --- | --- | --- |
| Cc1ncsc1-c1ccc([C@H](CCCCCN2CCC(c3ccc4c(c3)n(C3CCCC3)c3nc(=O)c5c(Br)cccc5n43)CC2)NC(=O)[C@@H]2C[C@@H](O)CN2C(=O)[C@@H](NC(=O)C2(F)CC2)C(C)(C)C)cc1 [compound 11] | <24 | <24.400 <24.400 <24.400 <24.400% | <24 | <24.200 <24.200 <24.200 <24.200 <24.200 <24.200 <24.200 <24.200% | <23 | <23.100 <23.100 <23.100 <23.100 <23.100 <23.100 <23.100 <23.100% | 37 ± 12 | 45.4 nM and 28.1 nM | 0.3 | 18 ± 2 | 16.7 nM and 16.3 nM and 19.3 nM | 0.6 | 5.3 ± 2.1 | 4 ± 1 | 11.9 ± 1.3 | < 1 | < 1 | – | – | – | microsomal stability [1]: good microsomal stability; Caco-2 permeability [4]: improved permeability; efflux ratio ([4]; Caco-2): high efflux ratio; Modified Caco-2 + PGPi (Zosuquidar) Pab ([4]; Modified Caco-2 + PGPi (Zosuquidar)): 11 ± 3 10-6 cm/s; Modified Caco-2 Pab + PGPi (Zosuquidar) [4]: 12 ×10⁻⁶ cm/s and 16 ×10⁻⁶ cm/s and 9 ×10⁻⁶ cm/s and 8.7 ×10⁻⁶ cm/s; Modified Caco-2 Pba + PGPi (Zosuquidar) ([4]; Modified Caco-2, b to a): 19 ×10⁻⁶ cm/s; solubility [8]: moderate solubility |
| Cc1ncsc1-c1ccc(CNC(=O)[C@@H]2C[C@@H](O)CN2C(=O)[C@@H](NC(=O)C2(F)CC2)C(C)(C)C)c(OCCOCCOCCN2CCC(c3ccc4c(c3)n(C3CCCC3)c3nc(=O)c5c(Br)cccc5n43)CC2)c1 [compound 21] | 87 ± 10 | 92.470% and 92.660% and 75.300% | 56 ± 10 | 62.650% and 61.360% and 44.780% | 45 ± 13 | 57.680% and 45.850% and 32.500% | 58 ± 8 | 49 nM and 65.4 nM and 58.3 nM | 0.4 | 16 ± 11 | 28 nM and 7.74 nM and 13 nM | 1.3 | 1.9 ± 0.1 | 38 ± 4 | 2.0 ± 0.1 | – | – | <0.3 10-6 cm/s | <2.83e-07 cm/s | 200.000 ug/mL and 180.000 ug/mL and 190.000 ug/mL | – |
| Cc1ncsc1-c1ccc([C@H](CC[C@@H](C)CCN2CCC(c3ccc4c(c3)n(C3CCCC3)c3nc(=O)c5c(Br)cccc5n43)CC2)NC(=O)[C@@H]2C[C@@H](O)CN2C(=O)[C@@H](NC(=O)C2(F)CC2)C(C)(C)C)cc1 [compound 29] | <24 | <24.400 <24.400% | <24 | <24.200 <24.200% | <23 | <23.100 <23.100% | 20 ± 4 | 15.6 nM and 23 nM and 21.9 nM | 0.6 | 11 ± 1 | 11.5 nM (2×) and 9.84 nM | 1.1 | 6.4 ± 1.1 | 3 ± 1 | 24.9 ± 2.4 | – | – | 2 ± 0.2 10-6 cm/s | 1.9e-06 cm/s and < 1.9e-06 cm/s and 2.4e-06 cm/s | <1.000 <1.000 ug/mL | Solubility pH 6.8 ([8]; pH 6.8): <1.000 <1.000 ug/mL |
| Cc1ncsc1-c1ccc([C@H](COC(C)CN2CCC(c3ccc4c(c3)n(C3CCCC3)c3nc(=O)c5c(Br)cccc5n43)CC2)NC(=O)[C@@H]2C[C@@H](O)CN2C(=O)[C@@H](NC(=O)C2(F)CC2)C(C)(C)C)cc1 (stereo partly shown) [compound 9] | 55 ± 1 | 54.100% and 55.600% | 27 ± 3 | 24.700% and 28.800% and < 24.200% | <23 | <23.100 <23.100 <23.100% | 210 ± 83 | 132 nM and 298 nM and 201 nM | 0.2 | 180 ± 13 | 171 nM and 174 nM and 195 nM | 0.2 | 7.0 ± 2.6 | 7 ± 3 | 5.5 ± 1.7 | 14 (≈ 13.3 µM) | < 1 | – | – | – | Caco-2 Pba ([4]; Caco-2, b to a): 21 ×10⁻⁶ cm/s and 18 ×10⁻⁶ cm/s; Modified Caco-2 Efflux ratio ([4]; Modified Caco-2): 60.000 and 39 ± 21; Modified Caco-2 Pab + PGPi (Zosuquidar) [4]: 11 ×10⁻⁶ cm/s and 14 ×10⁻⁶ cm/s; Modified Caco-2 Pba ([4]; Modified Caco-2, b to a): 130 ×10⁻⁶ cm/s and 120 ×10⁻⁶ cm/s; Modified Caco-2 Pba + PGPi (Zosuquidar) ([4]; Modified Caco-2, b to a): 18 ×10⁻⁶ cm/s |
| Cc1ncsc1-c1ccc([C@H](COCCN2CCC(c3ccc4c(c3)n(C3CCCC3)c3nc(=O)c5c(Br)cccc5n43)CC2)NC(=O)[C@@H]2C[C@@H](O)CN2C(=O)[C@@H](NC(=O)C2(N(C)C)CC2)C(C)(C)C)cc1 [compound 26] | 86 ± 0.3 | 86.500% and 86.000% and 86.480% | >88 | > 88.400% and 90.900% | 58 ± 3 | 60.400% and 54.700% and 57.700% | 95 ± 37 | 64.1 nM and 136 nM and 86.3 nM | 0.8 | 116 ± 16 | 105 nM and 109 nM and 135 nM | 0.7 | 5.8 ± 1.9 | 6 ± 2 | 4.0 ± 1.2 | 200 (≈ 188 µM) | < 1 | – | <2.7e-06 cm/s | – | – |
| Cc1ncsc1-c1ccc(CNC(=O)[C@@H]2C[C@@H](O)CN2C(=O)[C@@H](NC(=O)C2(F)CC2)C(C)(C)C)c(OCCCCN2CCC(c3ccc4c(c3)n(C3CCCC3)c3nc(=O)c5c(Br)cccc5n43)CC2)c1 [compound 23] | 78 | 78.440% | 42 | 42.090% | <23 | <23.080% | 120 ± 8 | 116 nM (2×) and 129 nM | 0.1 | 84 ± 1 | 84.3 nM and 82.7 nM and 85 nM | 0.2 | 0.7 ± 0.3 | 21 ± 3 | 2.0 ± 0.4 | – | – | 0.4 10-6 cm/s | 4.01e-07 cm/s | <1.000 ug/mL | Caco-2 Efflux ratio ([4]; Caco-2): 26.136 and 26; Solubility pH 6.8 ([8]; pH 6.8): <1.000 ug/mL |
